The results in this text go back to ChEMBL document CHEMBL6096672, “In Silico Enabled Discovery of KAI-11101, a Preclinical DLK Inhibitor for the Treatment of Neurodegenerative Disease and Neuronal Injury” (J Med Chem, 2025).

By IC50 is commonly meant the concentration at which inhibition is half-maximal. By Ki is commonly meant the dissociation constant of the complex between target and ligand, obtained from inhibition or displacement. Higher therefore signals weaker binding.

Converted amounts (≈) assume the structure as drawn. Some results are limits rather than exact numbers.

The target of series [1] is Voltage-gated inwardly rectifying potassium channel KCNH2 (Homo sapiens, UniProt Q12809). Briefly: Inhibition of hERG by patch-clamp method. The series is classed as toxicity. Background: The hERG channel carries a current that helps repolarise heart muscle cells.
A short description of series [2]: Inhibition of GST-tagged DLK (1 to 520 residues)(unknown origin) using MKK4 as substrate preincubated for 60 mins followed by substrate/ATP addition measured after 30 mins by HTRF assay. More on the design: species or system Homo sapiens. On the technique in general: Time-resolved FRET reads energy transfer from a long-lived donor to a nearby acceptor.
A short description of series [3]: Inhibition of human DLK transfected in HEK293-T-REx cells assessed as decrease in JNK phosphorylation incubated for 5 hrs by HTRF assay. The series is classed as cell-based.
Series [4] is described as follows: Intrinsic clearance in mouse liver microsomes. The series is classed as ADME, Microsome. To be noted: read-out: CLH.
Series [5] in a line: Intrinsic clearance in human liver microsomes. To be noted: read-out: CLH. The series is classed as ADME, Microsome. In general terms: Liver microsomes are vesicles of endoplasmic reticulum, rich in cytochrome P450 enzymes.
Series [6] in a line: Ratio of unbound drug concentration in brain to plasma of mouse at 5 mg/kg. To be noted: brain and plasma, read-out: K(p,uu,brain). The series is classed as ADME, organism-based.
Series [7] is described as follows: Kinetic solubility of compound at pH 6.8. Type of series: physicochemical. To be noted: buffer, read-out: Kinetic_solubility.
Series [8] deals with CYP3A4 (Homo sapiens, UniProt P08684). Briefly: Time dependent inhibition of CYP3A4 (unknown origin) at 30 uM incubated for 30 mins relative to control. Type of series: ADME. To be noted: read-out: TDI.
Chain of CYP3A4 (P08684 whole entry): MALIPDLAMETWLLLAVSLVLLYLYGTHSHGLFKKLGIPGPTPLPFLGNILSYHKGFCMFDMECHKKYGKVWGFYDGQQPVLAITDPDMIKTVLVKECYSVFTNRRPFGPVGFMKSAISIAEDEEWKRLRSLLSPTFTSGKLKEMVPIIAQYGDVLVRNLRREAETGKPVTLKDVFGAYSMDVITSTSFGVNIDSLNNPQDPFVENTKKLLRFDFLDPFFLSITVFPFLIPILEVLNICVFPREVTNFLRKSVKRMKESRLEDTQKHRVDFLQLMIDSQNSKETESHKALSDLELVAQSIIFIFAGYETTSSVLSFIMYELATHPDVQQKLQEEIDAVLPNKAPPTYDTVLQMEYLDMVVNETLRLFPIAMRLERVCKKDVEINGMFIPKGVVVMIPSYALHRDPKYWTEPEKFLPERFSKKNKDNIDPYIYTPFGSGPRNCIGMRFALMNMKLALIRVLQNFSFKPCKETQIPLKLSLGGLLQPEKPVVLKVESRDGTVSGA

Chain of Voltage-gated inwardly rectifying potassium channel KCNH2 (Q12809 whole entry, the tested form may be a part): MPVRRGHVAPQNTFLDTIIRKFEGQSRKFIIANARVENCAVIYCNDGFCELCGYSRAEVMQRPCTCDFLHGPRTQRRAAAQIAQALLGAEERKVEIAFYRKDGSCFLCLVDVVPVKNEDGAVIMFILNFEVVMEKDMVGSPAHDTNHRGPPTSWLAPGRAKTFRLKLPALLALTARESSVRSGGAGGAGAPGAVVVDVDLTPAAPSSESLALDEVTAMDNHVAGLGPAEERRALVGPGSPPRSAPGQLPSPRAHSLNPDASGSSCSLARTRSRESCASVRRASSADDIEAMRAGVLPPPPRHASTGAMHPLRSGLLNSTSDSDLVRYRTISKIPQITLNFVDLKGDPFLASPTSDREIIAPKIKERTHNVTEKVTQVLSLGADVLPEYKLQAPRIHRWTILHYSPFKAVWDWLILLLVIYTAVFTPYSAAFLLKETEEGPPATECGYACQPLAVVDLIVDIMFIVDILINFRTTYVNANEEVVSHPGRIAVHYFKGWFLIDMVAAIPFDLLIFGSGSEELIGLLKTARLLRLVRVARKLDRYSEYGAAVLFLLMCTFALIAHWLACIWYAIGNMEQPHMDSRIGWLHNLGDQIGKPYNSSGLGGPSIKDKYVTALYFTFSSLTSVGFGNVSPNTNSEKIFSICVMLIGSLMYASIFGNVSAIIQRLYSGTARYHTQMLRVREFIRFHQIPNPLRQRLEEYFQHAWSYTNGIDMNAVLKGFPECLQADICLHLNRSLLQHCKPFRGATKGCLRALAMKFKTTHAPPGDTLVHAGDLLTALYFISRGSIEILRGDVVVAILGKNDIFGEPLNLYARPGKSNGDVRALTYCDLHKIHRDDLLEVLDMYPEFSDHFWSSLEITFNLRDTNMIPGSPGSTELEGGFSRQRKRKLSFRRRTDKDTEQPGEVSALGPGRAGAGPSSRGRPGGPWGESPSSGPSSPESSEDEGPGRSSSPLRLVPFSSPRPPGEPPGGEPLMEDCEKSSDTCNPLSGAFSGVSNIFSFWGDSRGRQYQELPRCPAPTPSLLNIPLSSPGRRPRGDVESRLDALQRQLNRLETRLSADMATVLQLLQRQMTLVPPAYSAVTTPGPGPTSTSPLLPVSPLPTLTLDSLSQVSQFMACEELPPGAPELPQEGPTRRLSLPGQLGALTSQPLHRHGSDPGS

As to `CO[C@H](C)c1nc(-c2cnc(N)c(C(F)(F)F)c2)c2ccc(C3CCN(C)CC3)cn12`, the IC50 in series [1] turned out to be 1300 nM; in series [3], 54 nM. Besides, the affinity in series [2], expressed as Ki, was 1.2 nM.
Take `Nc1ncc(-c2ncn3ccccc23)cc1C(F)(F)F`: affinity in series [2] was put at a Ki of 63 nM.
With `CCn1nc(-c2cnc(N)c(OC(F)(F)F)c2)c2ccn([C@@H](C)C3CC3)c(=O)c21`, the microsomal CLint in series [4] was 10 µL/min/mg; in series [5] it was under 4 µL/min/mg. Besides, the Ki in series [2] came out at 1.5 nM. Moreover, in series [3], the IC50 was found to be 110 nM. The Kp uu in series [6] was found to be 0.38.
In the same order, the values of `CCn1nc(-c2cnc(N)c(OC(F)(F)F)c2)c2ccn([C@@H]3CCOC[C@H]3OC)c(=O)c21` are 24 µL/min/mg, 9.3 µL/min/mg, 1.9 nM, 85 nM and 0.43.
Regarding `CN1CCC(Cc2ccc3c(-c4cnc(N)c(C(F)(F)F)c4)ncn3c2)CC1`, the Ki in series [2] came to 4.5 nM. Moreover, the IC50 in series [3] was found to be 405 nM. Also, in series [7], the solubility kinetic turned out to be 68 µM (≈ 26.5 µg/mL).
For `Nc1ncc(-c2nn(C3CC3)c3c(=O)n(C4CCOCC4)ccc23)cc1OC(F)(F)F`, the microsomal CLint was 17 µL/min/mg in series [4] and 13 µL/min/mg in series [5]. The inhibition constant Ki in series [2] worked out at 3.4 nM. Moreover, the 50% inhibitory concentration (IC50) in series [3] stood at 104 nM. Moreover, in series [6], the Kp uu came out at 0.31.
In turn, `CCc1nc(-c2cnc(N)c(OC(F)(F)F)c2)c2ccn(C3CCOCC3)c(=O)n12` came in with a Ki in series [2] of 2 nM. Besides, the IC50 in series [3] amounted to 190 nM. In series [8], the inhibition at 0.5 h, 30 µM was 87%.
The molecule `CCn1nc(-c2cnc(N)c(C(F)(F)F)c2)c2ccn([C@@H]3CCOC[C@@H]3OC3CC3)c(=O)c21` gave a Ki in series [2] of 1.8 nM. Also, in series [3], the IC50 was 180 nM. Besides, the Kp uu in series [6] turned out to be 0.24.
With `CC(C)c1ccc2c(-c3cnc(N)c(C(F)(F)F)c3)ncn2c1`, the Ki in series [2] stood at 9.2 nM. Further, the half-maximal inhibitory concentration (IC50) in series [3] came to 490 nM. For the same molecule, the solubility kinetic in series [7] came out at 10 µM (≈ 3.2 µg/mL).
Take `CC(C)n1cc(-c2cnc(N)c(C(F)(F)F)c2)c2nc(C3CC3)ccc21`: the Ki in series [2] is 27 nM.
Still for that read-out and setting: as for `Nc1ncc(-c2ccc3ncsc3n2)cc1C(F)(F)F`, the figure is 416 nM.
In series [2], `CCn1nc(-c2cnc(N)c(OC(F)F)c2)c2ccn([C@H]3CCOC[C@H]3OC3CCC3)c(=O)c21` had a Ki of 0.65 nM. In addition, in series [3], the IC50 turned out to be 35 nM.
`Nc1ncc(-c2cn(C3CCC3)c3cccnc23)cc1C(F)(F)F` had a Ki in series [2] of 194 nM.
Consider `CCn1nc(-c2cnc(N)c(OC(F)F)c2)c2ccn([C@H]3CCOC[C@H]3OC(F)(F)F)c(=O)c21`, for which the inhibition constant Ki in series [2] worked out at 0.92 nM. For the same molecule, the IC50 in series [3] came out at 46 nM. Also, the Kp uu in series [6] was 0.5.
Turning to `CCn1nc(-c2cnc(N)c(OC(F)(F)F)c2)c2ccn(C3COC3)c(=O)c21`, the figures for the microsomal CLint in series [4] and in series [5] were 24 µL/min/mg and 9.2 µL/min/mg, respectively. The inhibition constant Ki in series [2] amounted to 10.5 nM. In series [3], the half-maximal inhibitory concentration (IC50) was determined as 440 nM. Also, the Kp uu in series [6] was 0.5.
Take `CCc1nc(-c2cnc(N)c(OC(F)(F)F)c2)c2ccc(C3CCOCC3)nn12`: in series [2], the Ki is 1.6 nM. In series [3], the IC50 came to 84 nM. For the same molecule, the inhibition at 0.5 h, 30 µM in series [8] amounted to 78%.
On to `CCc1nc(-c2cnc(N)c(OC(F)(F)F)c2)c2ccc([C@H]3CC(=O)N(C)C3)cn12`, for which the inhibition constant Ki in series [2] worked out at 0.77 nM. Also, in series [3], the IC50 came to 70 nM. In addition, the inhibition at 0.5 h, 30 µM in series [8] was found to be 81%.
Turning to `CCn1nc(-c2cnc(N)c(OC(F)(F)F)c2)c2ccn([C@@H]3CCCOCC3)c(=O)c21`, the results for the microsomal CLint in series [4] and in series [5] were 25 µL/min/mg and 18 µL/min/mg, respectively. The same molecule returned a Ki in series [2] of 1.3 nM. Besides, the half-inhibitory concentration (IC50) in series [3] was 140 nM. In addition, the Kp uu in series [6] came to 0.29.
The molecule `Nc1ncc(-c2ncn3cc(C4CCN(C5COC5)CC4)ccc23)cc1C(F)(F)F` registered a Ki in series [2] of 3.2 nM. Besides, the IC50 in series [3] came to 134 nM. For the same molecule, in series [7], the solubility kinetic is 6 µM (≈ 2.5 µg/mL).
In the case of `CN1CCOC[C@H]1c1ccc2c(-c3cnc(N)c(OC(F)(F)F)c3)nc(C(F)(F)F)n2c1`, in series [2], the Ki turned out to be 3.5 nM. Further, in series [3], the IC50 amounted to 300 nM. Besides, the inhibition at 0.5 h, 30 µM in series [8] stood at 33%.
In the case of `CCn1nc(-c2cnc(N)c(OC(F)(F)F)c2)c2ccn(C3CCN(C4COC4)CC3)c(=O)c21`, the microsomal CLint in series [4] worked out at 8.3 µL/min/mg; in series [5], 7.9 µL/min/mg. In series [2], this molecule gave a Ki of 3 nM. For the same molecule, the IC50 in series [3] came to 130 nM. The Kp uu in series [6] is 0.15.
The molecule `Nc1ncc(-c2cc3cn[nH]c3c(C3CC3)n2)cc1C(F)(F)F` showed a Ki in series [2] of 59 nM.
For the molecule `Nc1ncc(-c2n[nH]c3cnccc23)cc1C(F)(F)F`, the Ki in series [2] was 149 nM.
In series [2], `CCc1nc(-c2cnc(N)c(OC(F)(F)F)c2)c2cc(C)c([C@H]3COCCN3C)cn12` displayed a Ki of 5.3 nM. For the same molecule, in series [3], the 50% inhibitory concentration (IC50) amounted to 290 nM. In addition, the inhibition at 0.5 h, 30 µM in series [8] was determined as 70%.
In turn, `CCc1nc(-c2cnc(N)c(OC(F)(F)F)c2)c2cc(Cl)c([C@H]3COCCN3C)cn12` came in with a Ki in series [2] of 7.1 nM. Moreover, the IC50 in series [3] was determined as 450 nM. Moreover, in series [8], the inhibition at 0.5 h, 30 µM was determined as 67%.
For the molecule `CC(C)c1n[nH]c2cnc(-c3cnc(N)c(C(F)(F)F)c3)cc12`, the Ki in series [2] was 79 nM.
`CCc1nc(-c2cnc(N)c(OC(F)(F)F)c2)c2ccc([C@@]3(C)COCCN3C)cn12` yielded a Ki in series [2] of 0.47 nM. Moreover, the 50% inhibitory concentration (IC50) in series [3] was 29 nM. Moreover, the inhibition at 0.5 h, 30 µM in series [8] stood at 62%.
In turn, `Nc1ncc(-c2c[nH]c3cccnc23)cc1C(F)(F)F` came in with an inhibition constant (Ki) in series [2] of 194 nM.
`CCc1nc(-c2cnc(N)c(OC(F)(F)F)c2)c2ccc([C@H]3COCC(=O)N3C)cn12` came in with an inhibitory constant (Ki) in series [2] of 0.26 nM. Besides, in series [3], the IC50 came to 33 nM. Besides, the inhibition at 0.5 h, 30 µM in series [8] is 65%.
With `CCc1nc(-c2cnc(N)c(C(F)(F)F)c2)c2ccc(C3COC3)cn12`, the Ki in series [2] was 1 nM.
In series [2], `CN1CCC(c2ccc3c(-c4cnc(N)c(C(F)(F)F)c4)nc(C#N)n3c2)CC1` displayed a Ki of 4.8 nM. In addition, the half-inhibitory concentration (IC50) in series [3] worked out at 162 nM.
For `CCn1nc(-c2cnc(N)c(OC(F)(F)F)c2)c2ccn([C@@H]3CCOC3)c(=O)c21`, the results for the microsomal CLint in series [4] and in series [5] were 33 µL/min/mg and 22 µL/min/mg, respectively. The Ki in series [2] was 7.7 nM. Moreover, in series [3], the IC50 came out at 120 nM.
With `CN1CCC(c2ccc3c(-c4cnc(N)c(C(F)(F)F)c4)ncn3c2)CC1`, in series [2], affinity was put at a Ki of 1.5 nM. Moreover, the IC50 in series [3] stood at 128 nM. The solubility kinetic in series [7] worked out at 80 µM (≈ 30 µg/mL).
`Nc1ncc(-c2cc3cn[nH]c3cn2)cc1C(F)(F)F` displayed a Ki in series [2] of 421 nM.
In series [2], `CCn1nc(-c2cnc(N)c(OC(F)(F)F)c2)c2ccc([C@H]3COCCN3C)nc21` gave a Ki of 2.4 nM. For the same molecule, the IC50 in series [3] worked out at 94 nM. Further, the inhibition at 0.5 h, 30 µM in series [8] was 14%.
Take `CCn1nc(-c2cnc(N)c(OC(F)(F)F)c2)c2ccn(C3CCN(C)CC3)c(=O)c21`: the microsomal CLint is 4 µL/min/mg in series [4] and under 3 µL/min/mg in series [5]. In addition, the affinity in series [2], expressed as Ki, was 2.5 nM. In addition, in series [3], the IC50 is 130 nM. For the same molecule, the Kp uu in series [6] turned out to be 0.38.
The molecule `CCn1nc(-c2cnc(N)c(OC(F)F)c2)c2ccn([C@H]3CCOC[C@H]3OC3CC3)c(=O)c21` had a Ki in series [2] of 0.58 nM. Further, the IC50 in series [3] was determined as 32 nM. The Kp uu in series [6] came out at 0.15.
`Nc1ncc(-c2n[nH]c3ccsc23)cc1C(F)(F)F`: the inhibition constant (Ki) in series [2] came to 72.4 nM.
As to `CN1CCC(c2ccc3c(-c4cnc(N)c(C(F)(F)F)c4)nc(C(F)(F)F)n3c2)CC1`, in series [2], affinity was put at a Ki of 2.1 nM. In addition, the 50% inhibitory concentration (IC50) in series [3] is 94 nM. Moreover, the solubility kinetic in series [7] worked out at 76 µM (≈ 33.7 µg/mL).
